Data on 6 compounds can be found in PMC10610424, “Enhancing Solubility and Dissolution Rate of Antifungal Drug Ketoconazole through Crystal Engineering” (Pharmaceuticals, 2023).

For data set [1] the following is noted: cited from earlier work.
Data set [2] in a line: Powder dissolution experiments, basket method. The note with it: pure water and pH 4.5 acetate buffer, 37 °C, up to 480 min. It counts as physicochemical. The method, then:
The powder dissolution experiments were performed via a dissolution apparatus (RC12AD dissolution tester, TDTF Technology Co., Ltd., Tianjin, China) by a basket method in pure water and pH 4.5 acetate buffer solution, respectively, with a rotation speed of 100 rpm under a temperature of 37 ± 0.2 °C [67]. […] At regular time intervals of 5, 15, 30, 60, 90, 120, 180, 240, 360, and 480 min, 1 mL of solution was extracted, and the withdrawn solutions were filtered using a 0.45 μm syringe tip filter. […] All the dissolution experiments were performed in triplicate. After the dissolution experiments, residual solids were collected, air-dried, and confirmed by PXRD.

Data set [3] can be described thus: Equilibrium solubility, shake flask method, HPLC of KTZ. The conditions noted are these: for Equilibrium solubility, concentration of KTZ / solubility thermodynamic at 48 h: 37.0 °C, mean ± SD, triplicate; for Equilibrium solubility, concentration of KTZ / Solid-form stability of residual solids after equilibrium solubility experiments (PXRD) / solubility thermodynamic at 48 h: 48 h; for Solid-form stability of residual solids after equilibrium solubility experiments (PXRD): ultrapure water and pH 4.5 acetate buffer. It counts as physicochemical. The method, then: The solutions were stirred at 160 strokes min^−1 with a magnetic bar at 37 °C for 48 h to reach equilibrium. The suspension was filtered through a 0.22 μm nylon filter membrane, diluted appropriately, and analyzed by subsequent high-performance liquid chromatography (HPLC) analysis. […] An Agilent Eclipse XDB−C18 (250 mm × 4.6 mm, 5 μm) column was used throughout the process of elution with the column temperature set to 30 °C. The mobile phase, consisting of methanol and water (80/20, v/v), was run at 1.0 mL min^−1 with a detection wavelength of 254 nm. The injection sample volume was 10 μL. The measurements were performed based on an external standard method. All the solubility experiments were performed in triplicate and the results are expressed as the mean value ± standard deviation (SD). Residual solids were collected after the equilibrium solubility experiment and characterized by PXRD for solid-form stability examinations.

For data set [4] the following is noted: value of the coformer (CCF) of the crystal named in the line; source not given; cited from earlier work.
The nature of the next data set: pKa values and ΔpKa rule. Format: physicochemical. The text has this: To understand the crystal nature of the obtained solid forms (a salt or a cocrystal), three commonly used principles have been summarized, such as the ΔpKa rule, the position of the hydroxyl-H atom retrieved from SCXRD data, and the structural characteristics of interacting groups. The pKa values of the starting functional groups, the ΔpKa values between the two considered groups, the geometric parameters of the C−O bond lengths of the carboxylic/carboxylate group, and the endocyclic C−N−C bond angle are provided in Table 2. Firstly, the ΔpKa rule has long been used for the prediction of salt or cocrystal formation. It is generally accepted that when ΔpKa is >4, proton transfer is expected to occur and salt is anticipated to form; when ΔpKa < −1, on the other hand, the formation of non-ionized cocrystals prevails over that of salts. However, if the ΔpKa values are located in the region of −1 to 4, it is impossible to provide a prediction of a salt or a cocrystal. […] Secondly, the residual density map provided by the SXRD data (Figure S3) could be used to distinguish the location of the H atom and, thus, the cocrystal, salt, and salt–cocrystal continuum could be distinguished. […] Thirdly, the ionization state of the structures was also supported by the difference in the C−O bond lengths in a carboxylic/carboxylate group and the bond angle of C24−N4−C25 in the imidazole ring. In a neutral carboxylic group, the length of C−O is longer than that of C=O, while in the carboxylate anion, there is nearly no difference between the bond lengths of C−O and C−O^− [47]. The endocyclic C−N−C bond angle of the cationic N-heterocycle is higher than that of the neutral state.

Data set [5] can be described thus: Accelerated stability test, PXRD. The note with it: high temperature 60 °C, high humidity 90%, illumination 4500 lx; 0, 5, 10 days. Format: physicochemical. The method, then: Approximately 50 mg of powdered samples were stored under the three test conditions and measured at regular time intervals (0, 5, and 10 days) by PXRD [68].

Molecules are shown by their SMILES. Values after ≈ are worked out from the molar mass of the structure shown.

Turning to `CC(=O)N1CCN(c2ccc(OCC3COC(Cn4ccnc4)(c4ccc(Cl)cc4Cl)O3)cc2)CC1.O=C(O)c1ccc(O)c(O)c1` (racemic) [KTZ-PCA-I], the “Solubility in ultrapure water” value in data set [1] (ultrapure water) was “approximately 500 μg mL^−1”.

`CC(=O)N1CCN(c2ccc(OCC3COC(Cn4ccnc4)(c4ccc(Cl)cc4Cl)O3)cc2)CC1.O=C(O)c1c(O)cccc1O` (racemic) [KTZ−26DHB]: the “Solid-form stability of residual solids after powder dissolution experiments (PXRD)” value in data set [2] is on record as “remained stable”. Besides, the “Solubility of ketoconazole in distilled water” value (shortened to “Solubility of ketoconazole”) in data set [3] (distilled water (abstract)) came out at 139.1 µg/mL. Further, the figures for the “Equilibrium solubility, concentration of KTZ” value in data set [3] (pH 4.5 acetate buffer) and in data set [3] (ultrapure water) were 263.76 ± 8.51 µg/mL and 139.13 ± 14.25 µg/mL, respectively. In addition, the “Solid-form stability of residual solids after equilibrium solubility experiments (PXRD)” value in data set [3] (37 °C) was “remained stable and nondissociable”. The “pKa Values of CCFs” value in data set [4] is listed as 1.6. Moreover, in the data set “pKa values and ΔpKa rule”, the “ΔpKa Values between CCF and KTZ” value is listed as 3.9.

Take `CC(=O)N1CCN(c2ccc(OCC3COC(Cn4ccnc4)(c4ccc(Cl)cc4Cl)O3)cc2)CC1.O=C(O)c1cc([N+](=O)[O-])cc([N+](=O)[O-])c1` (racemic) [KTZ−35DNB]: the “Solid-form stability of residual solids after powder dissolution experiments (PXRD)” value in data set [2] was “remained stable”. The “Solubility of ketoconazole” value in data set [3] (distilled water (abstract)) is 191.7 µg/mL. For the same compound, the entries for the “Equilibrium solubility, concentration of KTZ” value in data set [3] (pH 4.5 acetate buffer) and in data set [3] (ultrapure water) were 273.66 ± 9.87 µg/mL and 191.67 ± 15.95 µg/mL, respectively. The “Solid-form stability of residual solids after equilibrium solubility experiments (PXRD)” value in data set [3] (37 °C) was “remained stable and nondissociable”. Besides, in data set [4], the “pKa Values of CCFs” value is 2.8. In “pKa values and ΔpKa rule”, the “ΔpKa Values between CCF and KTZ” value is on record as 3.7.

Consider `CC(=O)N1CCN(c2ccc(OCC3COC(Cn4ccnc4)(c4ccc(Cl)cc4Cl)O3)cc2)CC1.O=C(O)CCCC(=O)O` (racemic) [KTZ−GTA], for which, in data set [3] (distilled water (abstract)), the “Solubility of ketoconazole” value is 2165.6 µg/mL. Moreover, the “Equilibrium solubility, concentration of KTZ” value in data set [3] (pH 4.5 acetate buffer) was found to be 339.87 ± 28.33 µg/mL; in data set [3] (ultrapure water), 2165.56 ± 251.34 µg/mL. The “Solubility increase in water concerning ketoconazole” value in data set [3] (water) was determined as 1800 fold. In data set [4], the “pKa Values of CCFs” value is 4.3. In addition, the “ΔpKa Values between CCF and KTZ” value in the data set “pKa values and ΔpKa rule” was 2.2.

As for `CC(=O)N1CCN(c2ccc(OCC3COC(Cn4ccnc4)(c4ccc(Cl)cc4Cl)O3)cc2)CC1.O=C(O)c1ccc(O)c(O)c1` (racemic) [KTZ−PCA-II], the “Solubility of ketoconazole” value in data set [3] (distilled water (abstract)) amounted to 386.3 µg/mL. The figures for the “Equilibrium solubility, concentration of KTZ” value in data set [3] (pH 4.5 acetate buffer) and in data set [3] (ultrapure water) were 308.06 ± 33.95 µg/mL and 386.34 ± 89.30 µg/mL, respectively. In data set [4], the “pKa Values of CCFs” value is on record as 4.5. Further, the “ΔpKa Values between CCF and KTZ” value in the data set “pKa values and ΔpKa rule” was 2.0.

`CC(=O)N1CCN(c2ccc(OCC3COC(Cn4ccnc4)(c4ccc(Cl)cc4Cl)O3)cc2)CC1` (stereo not drawn) [KTZ, cis-1-acetyl-4-[4-[[2-(2,4-dichlorophenyl)-2-(1-H-imidazole-1-ylmethyl)-1,3-dioxolan-4-yl]methoxy]phenyl] piperazine, reference compound]: the “Stability under accelerated storage conditions (PXRD)” value in data set [5] was “stable”. Also, the Solubility in water in data set [1] (water, 25 °C) is 0.087 µg/mL (≈ 0.164 µM). In addition, the solubility at 48 h in data set [3] (37 °C, thermodynamic from solid, distilled water (abstract), read-out: Solubility of ketoconazole in distilled water) came out at 1.2 µg/mL (≈ 2.26 µM). Also, the solubility (thermodynamic) at 48 h was 239 ± 4.69 µg/mL (≈ 451 µM) in data set [3] (aqueous buffer, thermodynamic from solid, pH 4.5 acetate buffer) and 1.2 ± 0.27 µg/mL (≈ 2.26 µM) in data set [3] (thermodynamic from solid, ultrapure water).

The term solubility denotes how much of the substance goes into solution per volume. A word on the solubility (thermodynamic): it is solubility found after equilibrating the solid with the medium.
